Measured values published in patent publication US11230540B2, “Substituted triazole derivatives and uses thereof” (Bayer Pharma Aktiengesellschaft, priority 2017, dated 2022).
Where a name gives a salt, the structure may show the parent alone. One block for each compound: values may come before it.

Assays:
human V1a receptor = biological target: T1, human V1a receptor (Homo sapiens, UniProt P37288); assay: Cellular in vitro assay for vasopressin receptor activity, V1a receptor cell line (aequorin luminescence); type: cell-based; conditions: for IC50: CHO cell line transfected with human V1a receptor, [Arg8]-vasopressin at EC50 concentration, read-out: IC50 hV1a; for ratio IC50 hV2/hV1a: selectivity ratio of the IC50 values hV2/hV1a
T1 construct: expressed in transfected cells; host or cells: CHO K1 (Chinese hamster ovary), also stably transfected with a modified aequorin
Procedure: (§1) B-1. Cellular In Vitro Assay for Determining Vasopressin Receptor Activity
(§2) The identification of agonists and antagonists of the V1a and V2 vasopressin receptors from humans, rats and dogs as well as the quantification of the activity of the compounds of the invention is carried out using recombinant cell lines. These cell lines originally derive from a hamster's ovary epithelial cell (Chinese Hamster Ovary, CHO K1, ATCC: American Type Culture Collection, Manassas, Va. 20108, USA). The test cell lines constitutively express the human, rat or dog V1a or V2 receptors. In case of the […] V1a receptors, cells are also stably transfected with a modified form of the calcium-sensitive photoproteins aequorin (human and rat V1a) or obelin (dog V1a), which, after reconstitution with the cofactor coelenterazine, emit light when there are increases in free calcium concentrations [Rizzuto R, Simpson A W, Brini M, Pozzan T, Nature 358, 325-327 (1992); Illarionov B A, Bondar V S, Illarionova V A, Vysotski E S, Gene 153 (2), 273-274 (1995)]. The resulting vasopressin receptor cells react to stimulation of the recombinantly expressed V1a receptors by intracellular release of calcium ions, which can be quantified by the resulting photoprotein luminescence. The Gs-coupled V2 receptors are stably transfected into cell lines expressing the gene for firefly luciferase under control of a CRE-responsible promoter. Activation of V2 receptors induces the activation of the CRE-responsive promoter via cAMP increase, thereby inducing the expression of firefly luciferase. The light emitted by photoproteins of V1a cell lines as well as the light emitted by firefly luciferase of V2 cell lines corresponds to the activation or inhibition of the respective vasopressin receptor. The bioluminescence of the cell lines is detected using a suitable luminometer [Milligan G, Marshall F, Rees S, Trends in Pharmacological Sciences 17, 235-237 (1996)].
Vasopressin V1a Receptor Cell Lines:
On the day before the assay, the cells are plated out in culture medium (DMEM/F12, 2% FCS, 2 mM glutamine, 10 mM HEPES, 5 μg/ml coelenterazine) in 384-well microtiter plates and kept in a cell incubator (96% humidity, 5% v/v CO2, 37° C.). On the day of the assay, test compounds in various concentrations are placed for 10 minutes in the wells of the microtiter plate before the agonist [Arg^8]-vasopressin at EC50 concentration is added. The resulting light signal is measured immediately in a luminometer.
(§3) Table 1A below lists individual IC50 values for the compounds of the invention (including racemic mixtures as well as separated enantiomers) that were obtained from cell lines transfected with the human V1a or V2 receptor: […]

human V2 receptor = biological target: T2, human V2 receptor (Homo sapiens, UniProt P30518); assay: Cellular in vitro assay for vasopressin receptor activity, V2 receptor cell line (CRE-luciferase); type: cell-based; conditions: CHO cell line transfected with human V2 receptor; [Arg8]-vasopressin at EC50 concentration; read-out: IC50 hV2
T2 construct: expressed in transfected cells; host or cells: CHO K1 (Chinese hamster ovary) expressing firefly luciferase under a CRE-responsive promoter
Procedure: as §1, §2
Vasopressin V2 Receptor Cell Lines:
On the day before the assay, the cells are plated out in culture medium (DMEM/F12, 2% FCS, 2 mM glutamine, 10 mM HEPES) in 384-well microtiter plates and kept in a cell incubator (96% humidity, 5% v/v CO2, 37° C.). On the day of the assay, test compounds in various concentrations and the agonist [Arg^8]-vasopressin at EC50 concentration are added together to the wells, and plates are incubated for 3 hours in a cell incubator. Upon addition of the cell lysis reagent Triton™ and the substrate luciferin, luminescence of firefly luciferase is measured in a luminometer.
as §3

T2 sequence (P30518 whole entry): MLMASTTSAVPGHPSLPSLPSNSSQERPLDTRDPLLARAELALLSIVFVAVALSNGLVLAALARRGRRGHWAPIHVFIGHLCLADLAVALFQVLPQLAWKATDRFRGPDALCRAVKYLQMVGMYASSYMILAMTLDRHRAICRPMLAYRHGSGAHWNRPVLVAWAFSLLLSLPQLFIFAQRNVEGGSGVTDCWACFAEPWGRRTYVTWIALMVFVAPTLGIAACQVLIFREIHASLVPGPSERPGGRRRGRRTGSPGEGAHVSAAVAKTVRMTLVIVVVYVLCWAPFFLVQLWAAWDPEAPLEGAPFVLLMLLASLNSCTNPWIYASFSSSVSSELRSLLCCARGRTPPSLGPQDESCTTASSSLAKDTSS
T1 sequence (P37288 whole entry): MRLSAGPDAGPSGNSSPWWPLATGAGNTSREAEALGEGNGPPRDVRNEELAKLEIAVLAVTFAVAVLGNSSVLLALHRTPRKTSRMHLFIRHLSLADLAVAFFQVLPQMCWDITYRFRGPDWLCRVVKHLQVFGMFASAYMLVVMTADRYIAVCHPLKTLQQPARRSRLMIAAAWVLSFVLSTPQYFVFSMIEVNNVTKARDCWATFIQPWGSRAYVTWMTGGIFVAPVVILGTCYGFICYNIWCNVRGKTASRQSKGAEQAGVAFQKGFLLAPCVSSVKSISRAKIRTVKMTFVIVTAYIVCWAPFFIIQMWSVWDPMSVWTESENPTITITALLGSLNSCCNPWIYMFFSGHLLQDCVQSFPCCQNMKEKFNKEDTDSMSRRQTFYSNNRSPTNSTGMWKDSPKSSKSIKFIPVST

Structure (SMILES): CC(C)(C)NC(=O)c1nc(Cn2nc(-c3ccc(Cl)cc3)n(C[C@H](O)C(F)(F)F)c2=O)nn1-c1ncccc1OC(F)(F)F [Example 29, N-tert-Butyl-3-({3-(4-chlorophenyl)-5-oxo-4-[(2S)-3,3,3-trifluoro-2-hydroxypropyl]-4,5-dihydro-1H-1,2,4-triazol-1-yl}methyl)-1-[3-(trifluoromethoxy)pyridin-2-yl]-1H-1,2,4-triazole-5-carboxamide]
IC50 (human V1a receptor): 19.5 nM
ratio IC50 hV2/hV1a (human V1a receptor): 32.6
IC50 (human V2 receptor): 635 nM

Structure (SMILES): O=C1CN(C(=O)c2nc(Cn3nc(-c4ccc(Cl)cc4)n(C[C@H](O)C(F)(F)F)c3=O)nn2-c2ccccc2Cl)CCN1 [Example 31, 4-{[1-(2-Chlorophenyl)-3-({3-(4-chlorophenyl)-5-oxo-4-[(2S)-3,3,3-trifluoro-2-hydroxypropyl]-4,5-dihydro-1H-1,2,4-triazol-1-yl}methyl)-1H-1,2,4-triazol-5-yl]carbonyl}piperazin-2-one]
IC50 (human V1a receptor): 5.7 nM
ratio IC50 hV2/hV1a (human V1a receptor): 6.0
IC50 (human V2 receptor): 34 nM

Structure (SMILES): CNC(=O)c1nc(Cn2nc(-c3ccc(Cl)cc3)n(C[C@H](O)C(F)(F)F)c2=O)nn1-c1cccc(Cl)c1 [Example 34, 1-(3-Chlorophenyl)-3-({3-(4-chlorophenyl)-5-oxo-4-[(2S)-3,3,3-trifluoro-2-hydroxypropyl]-4,5-dihydro-1H-1,2,4-triazol-1-yl}methyl)-N-methyl-1H-1,2,4-triazole-5-carboxamide]
IC50 (human V1a receptor): 34.6 nM
ratio IC50 hV2/hV1a (human V1a receptor): 0.2
IC50 (human V2 receptor): 6.95 nM

Structure (SMILES): O=C(c1nc(Cn2nc(-c3ccc(Cl)cc3)n(C[C@H](O)C(F)(F)F)c2=O)nn1-c1cccc(Cl)c1)N1CCOCC1 [Example 36, 5-(4-Chlorophenyl)-2-{[1-(3-chlorophenyl)-5-(morpholin-4-ylcarbonyl)-1H-1,2,4-triazol-3-yl]methyl}-4-[(2S)-3,3,3-trifluoro-2-hydroxypropyl]-2,4-dihydro-3H-1,2,4-triazol-3-one]
IC50 (human V1a receptor): 18.3 nM
ratio IC50 hV2/hV1a (human V1a receptor): 0.7
IC50 (human V2 receptor): 12.8 nM

Structure (SMILES): COCCNC(=O)c1nc(Cn2nc(-c3ccc(Cl)cc3)n(C[C@H](O)C(F)(F)F)c2=O)nn1-c1cccc(F)c1 [Example 37, 3-({3-(4-Chlorophenyl)-5-oxo-4-[(2S)-3,3,3-trifluoro-2-hydroxypropyl]-4,5-dihydro-1H-1,2,4-triazol-1-yl}methyl)-1-(3-fluorophenyl)-N-(2-methoxyethyl)-1H-1,2,4-triazole-5-carboxamide]
IC50 (human V1a receptor): 38.6 nM
ratio IC50 hV2/hV1a (human V1a receptor): 0.6
IC50 (human V2 receptor): 23.4 nM

Structure (SMILES): O=C(NCC(F)(F)F)c1nc(Cn2nc(-c3ccc(Cl)cc3)n(C[C@H](O)C(F)(F)F)c2=O)nn1-c1cccc(F)c1 [Example 38, 3-({3-(4-Chlorophenyl)-5-oxo-4-[(2S)-3,3,3-trifluoro-2-hydroxypropyl]-4,5-dihydro-1H-1,2,4-triazol-1-yl}methyl)-1-(3-fluorophenyl)-N-(2,2,2-trifluoroethyl)-1H-1,2,4-triazole-5-carboxamide]
IC50 (human V1a receptor): 9.66 nM
ratio IC50 hV2/hV1a (human V1a receptor): 1.2
IC50 (human V2 receptor): 11.4 nM

Structure (SMILES): O=C(NC1CC1)c1nc(Cn2nc(-c3ccc(Cl)cc3)n(C[C@H](O)C(F)(F)F)c2=O)nn1-c1cccc(F)c1 [Example 39, 3-({3-(4-Chlorophenyl)-5-oxo-4-[(2S)-3,3,3-trifluoro-2-hydroxypropyl]-4,5-dihydro-1H-1,2,4-triazol-1-yl}methyl)-N-cyclopropyl-1-(3-fluorophenyl)-1H-1,2,4-triazole-5-carboxamide]
IC50 (human V1a receptor): 47 nM
ratio IC50 hV2/hV1a (human V1a receptor): 0.6
IC50 (human V2 receptor): 28.1 nM

Structure (SMILES): CC(C)(C)OC(=O)N1CCN(C(=O)c2nc(Cn3nc(-c4ccc(Cl)cc4)n(C[C@H](O)C(F)(F)F)c3=O)nn2-c2cccc(F)c2)CC1 [Example 40, tert-Butyl 4-{[3-({3-(4-chlorophenyl)-5-oxo-4-[(2S)-3,3,3-trifluoro-2-hydroxypropyl]-4,5-dihydro-1H-1,2,4-triazol-1-yl}methyl)-1-(3-fluorophenyl)-1H-1,2,4-triazol-5-yl]carbonyl}piperazine-1-carboxylate]
IC50 (human V1a receptor): 131 nM
ratio IC50 hV2/hV1a (human V1a receptor): 0.8
IC50 (human V2 receptor): 98.7 nM

Structure (SMILES): O=C(c1nc(Cn2nc(-c3ccc(Cl)cc3)n(C[C@H](O)C(F)(F)F)c2=O)nn1-c1cccc(F)c1)N1CCNCC1 [Example 41, 5-(4-Chlorophenyl)-2-{[1-(3-fluorophenyl)-5-(piperazin-1-ylcarbonyl)-1H-1,2,4-triazol-3-yl]methyl}-4-[(2S)-3,3,3-trifluoro-2-hydroxypropyl]-2,4-dihydro-3H-1,2,4-triazol-3-one trifluoroacetate]
IC50 (human V1a receptor): 19.3 nM
ratio IC50 hV2/hV1a (human V1a receptor): 7.4
IC50 (human V2 receptor): 141 nM

Compounds with a lower IC50 (human V1a receptor), results first:

IC50 (human V1a receptor): 1.01 nM
ratio IC50 hV2/hV1a (human V1a receptor): 29.0
IC50 (human V2 receptor): 29.3 nM
Structure (SMILES): O=C(c1nc(Cn2nc(-c3ccc(Cl)cc3)n(C[C@H](O)C(F)(F)F)c2=O)nn1-c1ccccc1Cl)N1CCOCC1 [Example 30, 5-(4-Chlorophenyl)-2-{[1-(2-chlorophenyl)-5-(morpholin-4-ylcarbonyl)-1H-1,2,4-triazol-3-yl]methyl}-4-[(2S)-3,3,3-trifluoro-2-hydroxypropyl]-2,4-dihydro-3H-1,2,4-triazol-3-one]

IC50 (human V1a receptor): 1.2 nM
ratio IC50 hV2/hV1a (human V1a receptor): 6.2
IC50 (human V2 receptor): 7.43 nM
Structure (SMILES): O=C(NCC1(O)CC1)c1nc(Cn2nc(-c3ccc(Cl)cc3)n(C[C@H](O)C(F)(F)F)c2=O)nn1-c1ccccc1Cl [Example 32, 1-(2-Chlorophenyl)-3-({3-(4-chlorophenyl)-5-oxo-4-[(2S)-3,3,3-trifluoro-2-hydroxypropyl]-4,5-dihydro-1H-1,2,4-triazol-1-yl}methyl)-N-[(1-hydroxycyclopropyl)methyl]-1H-1,2,4-triazole-5-carboxamide]

IC50 (human V1a receptor): 1.32 nM
ratio IC50 hV2/hV1a (human V1a receptor): 7.4
IC50 (human V2 receptor): 9.77 nM
Structure (SMILES): O=C(NC1CC1)c1nc(Cn2nc(-c3ccc(Cl)cc3)n(C[C@H](O)C(F)(F)F)c2=O)nn1-c1ccccc1Cl [Example 33, 1-(2-Chlorophenyl)-3-({3-(4-chlorophenyl)-5-oxo-4-[(2S)-3,3,3-trifluoro-2-hydroxypropyl]-4,5-dihydro-1H-1,2,4-triazol-1-yl}methyl)-N-cyclopropyl-1H-1,2,4-triazole-5-carboxamide]

IC50 (human V1a receptor): 4.92 nM
ratio IC50 hV2/hV1a (human V1a receptor): 0.7
IC50 (human V2 receptor): 3.64 nM
Structure (SMILES): CN(C)C(=O)c1nc(Cn2nc(-c3ccc(Cl)cc3)n(C[C@H](O)C(F)(F)F)c2=O)nn1-c1cccc(Cl)c1 [Example 35, 1-(3-Chlorophenyl)-3-({3-(4-chlorophenyl)-5-oxo-4-[(2S)-3,3,3-trifluoro-2-hydroxypropyl]-4,5-dihydro-1H-1,2,4-triazol-1-yl}methyl)-N,N-dimethyl-1H-1,2,4-triazole-5-carboxamide]

IC50 (human V1a receptor): 1.12 nM
ratio IC50 hV2/hV1a (human V1a receptor): 7.4
IC50 (human V2 receptor): 8.29 nM
Structure (SMILES): CNC(=O)c1nc(Cn2nc(-c3ccc(Cl)cc3)n(C[C@H](O)C(F)(F)F)c2=O)nn1-c1ccccc1OC [Example 42, 3-({3-(4-Chlorophenyl)-5-oxo-4-[(2S)-3,3,3-trifluoro-2-hydroxypropyl]-4,5-dihydro-1H-1,2,4-triazol-1-yl}methyl)-1-(2-methoxyphenyl)-N-methyl-1H-1,2,4-triazole-5-carboxamide]

IC50 (human V1a receptor): 2.07 nM
ratio IC50 hV2/hV1a (human V1a receptor): 8.1
IC50 (human V2 receptor): 16.7 nM
Structure (SMILES): CNC(=O)c1nc(Cn2nc(-c3ccc(Cl)cc3)n(C[C@H](O)C(F)(F)F)c2=O)nn1-c1ccccc1Cl [Example 43, 1-(2-Chlorophenyl)-3-({3-(4-chlorophenyl)-5-oxo-4-[(2S)-3,3,3-trifluoro-2-hydroxypropyl]-4,5-dihydro-1H-1,2,4-triazol-1-yl}methyl)-N-methyl-1H-1,2,4-triazole-5-carboxamide]
